The NIST ThermoML archive (doi:10.1016/j.jct.2012.08.014)
Numbers after ± are expanded uncertainties.

Settings: Liquid, Vibrating tube method

OCCO [1,2-ethanediol]
mass density [kg/m3]
Settings | 278.15 K | 288.15 K | 298.15 K | 308.15 K | 318.15 K | 328.15 K | 338.15 K | 348.15 K | 358.15 K
100 kPa | 1122.4 ± 2.4 | 1115.8 ± 2.4 | 1109 ± 2.4 | 1102.2 ± 2.4 | 1095.2 ± 2.4 | 1088.2 ± 2.4 | 1080.9 ± 2.4 | 1073.6 ± 2.4 | 1066.1 ± 2.4
1000 kPa | 1122.6 ± 2.4 | 1116 ± 2.4 | 1109.2 ± 2.4 | 1102.4 ± 2.4 | 1095.4 ± 2.4 | 1088.3 ± 2.4 | 1081.2 ± 2.4 | 1073.9 ± 2.4 | 1066.2 ± 2.4
5000 kPa | 1124.1 ± 2.4 | 1117.6 ± 2.4 | 1110.9 ± 2.4 | 1104.1 ± 2.4 | 1097.1 ± 2.4 | 1090.2 ± 2.4 | 1083.1 ± 2.4 | 1075.8 ± 2.4 | 1068.2 ± 2.4
10000 kPa | 1126 ± 2.4 | 1119.5 ± 2.4 | 1112.9 ± 2.4 | 1106.1 ± 2.4 | 1099.2 ± 2.4 | 1092.3 ± 2.4 | 1085.4 ± 2.4 | 1078.1 ± 2.4 | 1070.7 ± 2.4
15000 kPa | 1127.8 ± 2.4 | 1121.5 ± 2.4 | 1114.9 ± 2.4 | 1108.2 ± 2.4 | 1101.3 ± 2.4 | 1094.4 ± 2.4 | 1087.6 ± 2.4 | 1080.4 ± 2.4 | 1073.1 ± 2.4
20000 kPa | 1129.6 ± 2.4 | 1123.3 ± 2.4 | – | – | – | – | 1089.8 ± 2.4 | 1082.7 ± 2.4 | 1075.4 ± 2.4
25000 kPa | 1131.4 ± 2.4 | 1125.2 ± 2.4 | 1118.7 ± 2.4 | 1112.1 ± 2.4 | 1105.3 ± 2.4 | 1098.6 ± 2.4 | 1091.9 ± 2.4 | 1084.9 ± 2.4 | 1077.8 ± 2.4
30000 kPa | 1133.1 ± 2.4 | 1127 ± 2.4 | 1120.6 ± 2.4 | 1114 ± 2.4 | 1107.3 ± 2.4 | 1100.6 ± 2.4 | 1094 ± 2.4 | 1087 ± 2.4 | 1079.9 ± 2.4
35000 kPa | 1134.8 ± 2.4 | 1128.8 ± 2.4 | 1122.4 ± 2.4 | 1115.9 ± 2.4 | 1109.3 ± 2.4 | – | – | – | 1082.1 ± 2.4
40000 kPa | 1136.6 ± 2.4 | 1130.6 ± 2.4 | 1124.3 ± 2.4 | 1117.7 ± 2.4 | 1111.2 ± 2.4 | 1104.6 ± 2.4 | 1097.9 ± 2.4 | 1091.3 ± 2.4 | 1084.3 ± 2.4
45000 kPa | 1138.2 ± 2.4 | 1132.3 ± 2.4 | 1126.1 ± 2.4 | 1119.6 ± 2.4 | 1113.1 ± 2.4 | 1106.5 ± 2.4 | 1099.9 ± 2.4 | 1093.4 ± 2.4 | 1086.5 ± 2.4
50000 kPa | 1139.9 ± 2.4 | 1134.1 ± 2.4 | 1127.8 ± 2.4 | 1121.4 ± 2.4 | 1115 ± 2.4 | 1108.4 ± 2.4 | 1101.9 ± 2.4 | 1095.3 ± 2.4 | –
55000 kPa | 1141.6 ± 2.4 | 1135.7 ± 2.4 | 1129.6 ± 2.4 | 1123.2 ± 2.4 | – | – | 1103.9 ± 2.4 | 1097.3 ± 2.4 | 1090.7 ± 2.4
60000 kPa | 1143.3 ± 2.4 | 1137.4 ± 2.4 | 1131.3 ± 2.4 | 1125 ± 2.4 | 1118.6 ± 2.4 | 1112.1 ± 2.4 | 1105.8 ± 2.4 | 1099.4 ± 2.4 | 1092.7 ± 2.4

CC(O)CO (configuration not stated) [1,2-propanediol]
mass density [kg/m3]
Settings | 278.15 K | 288.15 K | 298.15 K | 308.15 K | 318.15 K | 328.15 K | 338.15 K | 348.15 K | 358.15 K
100 kPa | 1047.1 ± 2.4 | 1039.9 ± 2.4 | 1032.5 ± 2.4 | 1025.3 ± 2.4 | 1017.7 ± 2.4 | 1010 ± 2.4 | 1002.2 ± 2.4 | 994.1 ± 2.4 | 985.8 ± 2.4
1000 kPa | 1047.3 ± 2.4 | 1040.2 ± 2.4 | 1032.9 ± 2.4 | 1025.5 ± 2.4 | 1018 ± 2.4 | 1010.3 ± 2.4 | 1002.4 ± 2.4 | 994.5 ± 2.4 | 986.2 ± 2.4
5000 kPa | 1049.2 ± 2.4 | 1042.1 ± 2.4 | 1034.8 ± 2.4 | 1027.5 ± 2.4 | 1020.2 ± 2.4 | 1012.7 ± 2.4 | 1004.8 ± 2.4 | 996.9 ± 2.4 | 988.8 ± 2.4
10000 kPa | 1051.2 ± 2.4 | 1044.4 ± 2.4 | 1037.2 ± 2.4 | 1030.1 ± 2.4 | 1022.8 ± 2.4 | 1015.4 ± 2.4 | 1007.6 ± 2.4 | 999.9 ± 2.4 | 991.9 ± 2.4
15000 kPa | 1053.4 ± 2.4 | 1046.7 ± 2.4 | 1039.6 ± 2.4 | 1032.5 ± 2.4 | 1025.4 ± 2.4 | 1018 ± 2.4 | 1010.4 ± 2.4 | 1002.8 ± 2.4 | 995 ± 2.4
20000 kPa | 1055.5 ± 2.4 | 1048.9 ± 2.4 | 1041.9 ± 2.4 | 1034.9 ± 2.4 | 1027.9 ± 2.4 | 1020.6 ± 2.4 | 1013 ± 2.4 | 1005.5 ± 2.4 | 997.8 ± 2.4
25000 kPa | 1057.6 ± 2.4 | 1051.1 ± 2.4 | 1044.1 ± 2.4 | 1037.2 ± 2.4 | 1030.3 ± 2.4 | 1023.1 ± 2.4 | 1015.6 ± 2.4 | 1008.2 ± 2.4 | 1000.6 ± 2.4
30000 kPa | 1059.6 ± 2.4 | 1053.2 ± 2.4 | 1046.3 ± 2.4 | 1039.5 ± 2.4 | 1032.7 ± 2.4 | 1025.6 ± 2.4 | 1018.2 ± 2.4 | 1010.9 ± 2.4 | 1003.4 ± 2.4
35000 kPa | 1061.6 ± 2.4 | 1055.4 ± 2.4 | 1048.4 ± 2.4 | 1041.6 ± 2.4 | 1035 ± 2.4 | 1027.9 ± 2.4 | 1020.7 ± 2.4 | 1013.4 ± 2.4 | 1006 ± 2.4
40000 kPa | 1063.6 ± 2.4 | 1057.4 ± 2.4 | 1050.6 ± 2.4 | 1043.8 ± 2.4 | 1037.2 ± 2.4 | 1030.3 ± 2.4 | 1023.2 ± 2.4 | 1016 ± 2.4 | 1008.5 ± 2.4
45000 kPa | 1065.6 ± 2.4 | 1059.4 ± 2.4 | 1052.5 ± 2.4 | 1046 ± 2.4 | 1039.4 ± 2.4 | 1032.5 ± 2.4 | 1025.5 ± 2.4 | 1018.4 ± 2.4 | 1011.2 ± 2.4
50000 kPa | 1067.5 ± 2.4 | 1061.4 ± 2.4 | 1054.6 ± 2.4 | 1048.1 ± 2.4 | 1041.5 ± 2.4 | 1034.7 ± 2.4 | 1027.9 ± 2.4 | 1020.9 ± 2.4 | 1013.6 ± 2.4
55000 kPa | 1069.3 ± 2.4 | 1063.4 ± 2.4 | 1056.6 ± 2.4 | 1050.1 ± 2.4 | 1043.6 ± 2.4 | 1036.9 ± 2.4 | 1030.2 ± 2.4 | 1023.2 ± 2.4 | 1016.1 ± 2.4
60000 kPa | 1071.4 ± 2.4 | 1065.3 ± 2.4 | 1058.5 ± 2.4 | 1052.2 ± 2.4 | 1045.7 ± 2.4 | 1039 ± 2.4 | 1032.4 ± 2.4 | 1025.6 ± 2.4 | 1018.5 ± 2.4
